# Columns and labels:
# [1] = Acute toxicity, maximum tolerated dose (MTD); details: Swiss CD1, mouse, in vivo, iv
# Protocol: Another measure of toxicity is the maximum tolerated dose (MTD), which is determined as a dose level that is not accompanied by mortality or life-threatening toxicity. The dose ratio between toxic and therapeutic effect is the therapeutic index. […] The data obtained from these cell culture assays and animal studies can be used in formulating a dosage range that is not toxic for use in human subjects. […] The dosage may vary within this range depending upon the dosage form employed and the route of administration utilized. The exact formulation, route of administration and dosage can be chosen by the individual physician in view of the patient's condition or need thereof (see, e.g., Fingl et al., 1975, In: The Pharmacological Basis of Therapeutics, Chapter 1).
# For example, to examine acute toxicity, lipopeptide antibiotics of the invention can be tested in an animal model, such as Swiss CD1 mice, to determine the MTD. In certain embodiments, the animals used to test toxicity of a particular compound can be approximately 5-6 weeks old at the start of the experiment and weigh 22-26 g. The lipopeptides may be administered intravenously (i.v.) into, for example, the caudal tail vein at dose levels that range from about 50 to about 500 mg/kg, or from about 75 to about 250 mg/kg, or from about 100 to about 200 mg/kg, or at a dose range at or below 100 mg/kg. The animals are generally observed immediately after administration, 1-2 hours post administration, 5-8 hours post administration, and once daily thereafter. Observations include both the activity level of the mouse as well as any physical side effects from the administered dose. The animal weight is recorded on day 0 (immediately before dosing) and on day 7.
# in vivo = details: male, Sprague Dawley, rat, plasma, iv, 10 mg/kg
# Protocol: (§1) Yet other exemplary in vivo models can be used to characterize the pharmacokinetics and pharmacodynamic parameters of antimicrobial compounds of this disclosure. Some parameters that can be measured include an in vivo half-life of a compound, elimination rate and clearance, volume of distribution, and bioavailability. For example, briefly, compounds can be administered as a single i.v. or oral (p.o.) dose in mice or rats. At various time points (ranging from 1 minute to 72 hours), blood from treated animals is collected and the concentration of lipopeptide derivative in the ex vivo plasma can be quantified by, for example, liquid chromatography with mass spectrometric detection (LC/MS). After quantification, pharmacokinetics parameters can be calculated using methods known in the art, such as a one compartment model with mono-exponential decay and linear regression analysis (see, e.g., Fantin et al., Antimicrob. Agents Chemotherap. 35: 1413. 1991).
# (§2) A pharmacokinetic parameter that can be measured, and which aids in determining efficacy, after a single i.v. administration of an antimicrobial lipopeptide derivative of the instant disclosure is the systemic half-life of the compound. Briefly, test compounds were dissolved in a 5% mannitol solution (pH was then adjusted) to a concentration of 1 mg/mL (w/v). A single intravenous injection in the lateral caudal vein of Swiss CD1 mice (5 to 6 weeks old, female) or Sprague Dawley rats (male) was used to administer the lipopeptide derivative at a final dose of 10 mg/kg. At various time points (ranging from about 4 minutes to about 24 hours for mice, and 48 or 72 hours for rats) mice were sacrificed and blood was harvested. The concentration of lipopeptide derivative in ex vivo plasma was quantified using liquid chromatography (LC) with mass spectrometric detection (MS).
# [2] = test system: E. faecalis EFS0040 (clinical isolate); test: Intraperitoneal murine model of protection against infection (ED50, Table 21); type: in vivo, Enterococcus faecalis; details: for ED50 in Mice, E. faecalis (EFS0040): Swiss CD1 mice infected i.p., compound i.v.
# Excerpt: (§3) A variety of in vivo models may be used to assess the antimicrobial properties of lipopeptide derivative compounds of this disclosure. For example, antimicrobial compounds of the instant disclosure may be tested for efficacy by measuring a compound's ability to protect a mouse against a microbial infection, such as an infection or disease caused by or related to Gram-positive bacteria, including Staphylococcus aureus, Streptococcus pneumoniae, and Enterococcus faecalis. […] A certain period after infection, mice are then individually treated, for example intravenously (i.v.), with a lipopeptide derivative of this disclosure.
# (§4) Antimicrobial lipopeptide derivatives of the instant invention were tested for antimicrobial activity against Gram-positive bacteria in an intraperitoneal (i.p.) murine model (i.e., bacteria were injected i.p. and lipopeptide compounds were administered intravenously (i.v.)). Mice were infected with Staphylococcus aureus, Streptococcus pneumoniae, or Enterococcus faecalis, which were prepared as follows: S. aureus Smith (SAU0017, ATCC 19636) were grown in culture overnight on trypticase soy broth, harvested and then resuspended in fresh media containing 5% mucin (Sigma Chemical Co.); S. pneumoniae (SPN 0032, ATCC 10813) were grown overnight on blood agar plates and re-suspended in 0.9% sterile saline; and E. faecalis EFS0040 (clinical isolate) were grown overnight in culture on blood heart infusion broth, washed and resuspended in 0.9% saline and mixed with equal volume of sterile fecal rat extract. Swiss CD1 mice were each infected i.p. with bacteria at the following doses: S. aureus at 10^6 CFU/mouse; S. pneumoniae at 10^2 CFU/mouse; or E. faecalis at 10^7.5 CFU/mouse. […] The ED50 for each compound was calculated using the method of Reed and Meunch (Am. J. Hyg. 27: 493, 1938).
# [3] = test system: Staphylococcus aureus (MSSA); details: 24 h
# How it was run: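 Broth microdilution MIC per NCCLS M7-A6 with doubling serial dilutions, in cation-adjusted Mueller-Hinton broth supplemented with 0.625 mM calcium.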
# Staphylococcus aureus = type: cell-based; details: for Post Antibiotic Effect (hours) 0.5 × MIC: exposure one hour at 0.5 × MIC, S. aureus log phase; for Post Antibiotic Effect (hours) 1 × MIC: exposure one hour at 1 × MIC; for Post Antibiotic Effect (hours) 2 × MIC: exposure one hour at 2 × MIC; for Post Antibiotic Effect (hours) 4 × MIC: exposure one hour at 4 × MIC
# Protocol: An exemplary pharmacokinetic parameter to aid in characterizing the properties of lipopeptide derivative compounds of the disclosure is post-antibiotic effect (PAE) of a lipopeptide derivative. For example, a bacterial culture with an initial count of 10^6 to 10^7 colony forming units per ml (CFU/ml) is treated with a certain concentration of lipopetide derivative for a certain time and a parallel (control) culture is left untreated. After treatment, the lipopetide derivative is removed from the culture (e.g., by dilution 1:1000 in fresh, lipopetide derivative-free medium), and the untreated culture is manipulated in the same way. Then the cultures are further incubated and monitored for bacterial growth over time. […] By way of background and not wishing to be bound by theory, a lipopeptide derivative having a measurable PAE activity will likely provide additional time for the host immune system to remove bacteria that might have survived antibiotic treatment and reproduced after the antibiotic is degraded, removed or filtered from the circulatory system. A longer PAE can influence the clinical outcome of antimicrobial therapy (i.e., a lower dose of a lipopetide derivative may be used to treat an infection or the frequency of a dosing regimen can be reduced).
# After removal of the lipopeptide compounds, bacterial titre was determined each hour to monitor bacterial re-growth. The PAE duration is defined as the difference in time required for antimicrobial exposed bacterial cells versus unexposed bacterial cells to achieve an increase of 1 log10 unit in CFU/mL.
# [4] = In vivo half-life after single i.v. administration, mice; details: female, Swiss CD1, mouse, plasma, iv, 10 mg/kg
# Protocol: as §1, §2
# [5] = test system: S. aureus Smith (SAU0017, ATCC 19636); test: Intraperitoneal murine model of protection against infection (ED50, Table 21); type: in vivo, Staphylococcus aureus; details: for ED50 in Mice, S. aureus (SAU0017): Swiss CD1 mice infected i.p., compound i.v.
# Excerpt: as §3, §4
# [6] = test system: Streptococcus pneumoniae (SPN032, ATCC 1081); test: Intranasal murine lung infection model; type: in vivo
# Protocol: (§5) Other exemplary in vivo models of infection that may be used to assess, for example, the efficacy of an antimicrobial lipopeptide of the instant disclosure include the following: (A) a mouse (murine) model of lung infection (pneumonia) wherein the bacterial infection is administered intranasally (i.n.); (B) a murine thigh muscle model wherein the bacterial infection is administered intramuscularly (i.m.) in normal or neutropenic (immunocompromised) mice; and (C) a combination murine thigh muscle model (i.m. infection)/lung (i.n.) infection.
# Antimicrobial lipopeptide derivatives of the instant invention were tested for antimicrobial activity against Gram-positive bacteria in an intranasal (i.n.) murine lung infection model (i.e., bacteria were innoculated i.n. and lipopeptide compounds were administered i.v.). Streptococcus pneumoniae (SPN032, ATCC 1081) were grown on 5% sheep blood agar plates for 24 h at 37° C., harvested and then resuspended in 0.9% saline. A group of eight Swiss CD1 mice were sedated with 2% isoflurane, and each was infected i.n. dropwise to the nares with 50 μl of the prepared bacterial inoculum (i.e., a dose of about 10^6 CFU/mouse). […] The ED50 (mg/kg) for each compound was calculated using the method of Reed and Meunch (Am. J. Hyg. 27: 493, 1938).
# [7] = test system: Staphylococcus aureus (SAU0017); test: Thigh infection model in neutropenic mice; type: in vivo; details: Staphylococcus aureus, iv
# Protocol: as §5
# [8] = test system: S. pneumoniae (SPN 0032, ATCC 10813); test: Intraperitoneal murine model of protection against infection (ED50, Table 21); type: in vivo, Streptococcus pneumoniae; details: Streptococcus pneumoniae, ATCC10813, read-out: ED50 in Mice, S. pneumoniae (SPN0032)
# Excerpt: as §3, §4
# [9] = test system: Enterococcus faecalis (EFS0004); test: Kill curve (bactericidal activity); type: cell-based; details: FIG. 4A
# Protocol: (§6) Another measure of the antimicrobial properties of the lipopeptide derivative compounds of this disclosure includes kill curve measurements. Kill curve experiments generally involve exposure of microorganisms to varying concentrations (e.g., multiples of a compound's MIC) of a test compound. The microorganisms may be in culture at log phase of growth or may be in a particular host tissue (e.g., lung) for up to 24 hours before exposure to a test compound. At selected time points, a sample of each culture or tissue can be analyzed for a titre of viable microorganisms, which is generally gauged against the time required for a compound to inhibit growth or kill bacteria.
# (§7) Kill curve experiments were performed with both Staphylococcus aureus (SAU0017) and Enterococcus faecalis (EFS0004) organisms grown to log phase, which were suspended in cation-adjusted Mueller-Hinton broth with additional 0.625 mM Ca^+2 to a concentration of 10^6 CFU/mL. The cultures were then exposed to varying concentrations (i.e., multiples of the MIC) of a lipopeptide derivative and incubated at about 37° C. At selected time points from about 0 hours to about 24 hours, a sample of each culture was analyzed for a titre of viable organisms (CFU/ml), which was compared against the time required for each compound to kill bacteria.
# [10] = test system: Staphylococcus aureus (SAU0017); test: Kill curve (bactericidal activity); type: cell-based; details: FIG. 5A
# Protocol: as §6, §7
Structure (SMILES),MTD at 7 days [1],half-life (in vivo),"ED50 in Mice, E. faecalis (EFS0040) [2]",MIC [3],MIC used for the PAE experiment (Staphylococcus aureus),Post Antibiotic Effect (hours) 0.5 × MIC (Staphylococcus aureus),Post Antibiotic Effect (hours) 1 × MIC (Staphylococcus aureus),Post Antibiotic Effect (hours) 2 × MIC (Staphylococcus aureus),Post Antibiotic Effect (hours) 4 × MIC (Staphylococcus aureus),half-life [4],"ED50 in Mice, S. aureus (SAU0017) [5]","ED50 ([6]; Swiss CD1 mice, i.n. S. pneumoniae, i.v. treatment at 3, 24 and 48 hours post-infection, deaths over ten days)",ED50 [7],ED50 [8],"ED50 ([2]; Enterococcus faecalis, read-out: ED50 in Mice, E. faecalis (EFS0040))","ED50 ([6]; Streptococcus pneumoniae, ATCC1081, iv)","ED50 ([5]; Staphylococcus aureus, ATCC19636, read-out: ED50 in Mice, S. aureus (SAU0017))",bactericidal or bacteriostatic in kill curve [9],bactericidal or bacteriostatic in kill curve [10]
"CCCCCCCCCCCCCCNC(=O)NC(CC(=O)O)C(=O)NC1C(=O)N2CCCCC2C(=O)NC(C(C)C(=O)O)C(=O)NC(CC(=O)O)C(=O)NCC(=O)NC(CC(=O)O)C(=O)NCC(=O)NC(C(C)NC(=O)CCN)C(=O)NC(C(C)C)C(=O)N2CCCC2C(=O)NC1C (stereo not drawn) [Compound 278, CH3—(CH2)13—NH—C(═O)-Amphomycin-9-(β-Ala)]",200 to 400 mg/kg,425 min,5.3 mg/kg,0.5 µg/mL,2 µg/mL,1.5 h,2.6 h,2.2 h,3.2 h,447 min,7.1 mg/kg,–,–,–,–,–,–,–,–
"CCCCCCCCCCCC(=O)Nc1ccc(C(=O)NC(CC(=O)O)C(=O)NC2C(=O)N3CCCCC3C(=O)NC(C(C)C(=O)O)C(=O)NC(CC(=O)O)C(=O)NCC(=O)NC(CC(=O)O)C(=O)NCC(=O)NC(C(C)NC(=O)CCN)C(=O)NC(C(C)C)C(=O)N3CCCC3C(=O)NC2C)cc1 (stereo not drawn) [Compound 280, C12-PABA-Amphomycin-9-(β-Ala)]",200 to 400 mg/kg,424 min,2.1 mg/kg,–,–,2.5 h,1.5 h,1.9 h,2.4 h,345 min,6.5 mg/kg,1.8 mg/kg,–,–,–,–,–,–,–
"CN[C@H](CC(C)C)C(=O)N[C@H]1C(=O)N[C@@H](CC(N)=O)C(=O)N[C@H]2C(=O)N[C@H]3C(=O)N[C@H](C(=O)N[C@H](C(=O)O)c4cc(O)cc(O)c4-c4cc3ccc4O)[C@H](O)c3ccc(c(Cl)c3)Oc3cc2cc(c3O[C@@H]2O[C@H](CO)[C@@H](O)[C@H](O)[C@H]2O[C@H]2C[C@](C)(N)[C@H](O)[C@H](C)O2)Oc2ccc(cc2Cl)[C@H]1O [Vancomycin, reference compound]",–,–,–,–,–,–,–,–,–,–,–,–,0.9 to 1.6 mg/kg,1.75 mg/kg,2 mg/kg,3 to 4.3 mg/kg,0.9 to 2.4 mg/kg,bacteriostatic,bacteriostatic

# Reference: patent publication US7868135B2, “Compositions of lipopeptide antibiotic derivatives and methods of use thereof” (priority 2003, dated 2011)
